Here are results for five compounds from patent publication US9376449B2, “Indole carboxamide derivative” (Astellas Pharma Inc., priority 2012, dated 2016).

Usually Emax stands for the maximal effect, on the per cent scale that the assay sets. Usually EC50 stands for the concentration needed to bring the measured effect to its halfway point. Read a low EC50 as greater potency. The term melting point denotes the temperature, or range, at which the solid turns liquid.

Each structure is given as a SMILES string.

The target in one series is human MT1 receptor (Homo sapiens, UniProt P48039). The series is described as follows: Activation of human MT1 receptor in receptor-expressing HEK293 cells (intracellular Ca2+, FLIPR). Type of series: cell-based. As to conditions: for Emax: HEK293, maximum reaction by ramelteon taken as 100%, solvent only 0%, read-out: MT1 Emax (%); for EC50: HEK293 cells stably expressing human MT1 and Gq/i chimeric G-protein, intracellular Ca2+ by FLIPR. The protocol:
(§1) (1) Isolation of Human MT1 and MT2 Receptor and Construction of Expression Vector
(§2) A human MT1 receptor gene (GenBank Accession No.: NM_005958.3) and a human MT2 receptor gene (GenBank Accession No.: NM_005959.3) were each introduced into an expression vector pCDNA3.1/Zeo (Invitrogen, Inc.).
(§3) (2) Construction of Cells Stably Expressing Human MT1 and Human MT2 Receptor
(§4) The introduction was carried out according to the attached instructions, using a Lipofectoamine (registered trademark) 2000 Reagent (Invitrogen, Inc.). Zeocin and hygromycin were used as a resistant drug, and the cell was incubated for 15 days at 0.02 mg/mL and 0.05 mg/mL, respectively, thereby acquiring drug-resistant clones.
(§5) (3) Measurement of Intracellular Ca^2+ Concentration by FLIPR (Registered Trademark)
(§6) The respective stably expressing cells were dispensed into 96-well poly-D-lysine-coated plates (Falcon Co.) to 40,000 cells/well the day before the experiment, and incubated overnight in a DMEM (Invitrogen, Inc.) medium including 10% FBS at 37° C. and 5% CO2. The medium was replaced with a loading buffer (washing solution (Hank's balanced salt solution (HBSS), 20 mM HEPES-NaOH, 2.5 mM probenecid) including Fluo-4AM (Dojindo Co.) at 4 μM), and incubated for 1 hour at 37° C. and 5% CO2. Thereafter, the cells were washed with a plate washer (ELx405, BIO-TEK Instrument, Inc.) set with the washing solution, and set in an intracellular Ca^2+ concentration measuring systems (FLIPR (registered trademark), Molecular Device Co.). The test compound was dissolved in the washing solution in advance, diluted to a final concentration of −12 to −5 log M, set in a FLIPR (registered trademark) device together with the cells, and added to the cells in the device. At this time, a change in the intracellular Ca^2+ concentrations was measured.
(§7) Ex represents Example No. of the test compound.

Another series addresses T1, human MT2 receptor (Homo sapiens, UniProt P49286).
T1 sequence (P49286 1-362): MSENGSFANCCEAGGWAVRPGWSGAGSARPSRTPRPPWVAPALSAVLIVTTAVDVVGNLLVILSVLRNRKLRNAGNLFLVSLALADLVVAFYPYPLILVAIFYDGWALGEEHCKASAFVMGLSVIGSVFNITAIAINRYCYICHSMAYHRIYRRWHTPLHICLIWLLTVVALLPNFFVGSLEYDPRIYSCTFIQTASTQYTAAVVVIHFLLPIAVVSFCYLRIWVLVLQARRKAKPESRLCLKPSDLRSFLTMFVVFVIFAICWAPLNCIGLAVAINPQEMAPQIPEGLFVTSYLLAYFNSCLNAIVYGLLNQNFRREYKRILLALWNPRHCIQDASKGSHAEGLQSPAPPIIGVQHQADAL
The series is described as follows: Activation of human MT2 receptor in receptor-expressing HEK293 cells (intracellular Ca2+, FLIPR). Type of series: cell-based. As to conditions: for Emax: HEK293, maximum reaction by ramelteon taken as 100%, solvent only 0%; for EC50: HEK293 cells stably expressing human MT2 and Gq/i chimeric G-protein, intracellular Ca2+ by FLIPR. The protocol: as §1, §2, §3, §4, §5, §6, §7

The next series concerns isolated urethra. Briefly: Isolated urethra contractile action. As to conditions: test compound at 1 μM; contractile response by 10 μM phenylephrine as 100%; SD female rat urethra; read-out: Isolated urethra contraction (%). Set-up: species or system rat. The protocol: Test Example 2 Isolated Urethra Contractile Action
(1) Evaluation Test on Urethra Contractile Action of Test Compound Using Isolated Urethra
The urethra was isolated from an SD female rat having a body weight of 100 to 500 g. The isolated urethra was incised longitudinally to give a rectangular strip specimen having a width of about 3 mm, which was suspended in the circular muscle direction in 10 mL of a tissue bath filled with a Krebs-Henseleit solution (pH 7.4). The Krebs-Henseleit solution was bubbled with 95% O2 and 5% CO2, and kept at 37° C. The resting tension was set to 0.5 g to record the isometric contraction. After the resting tension was stabilized, contraction was elicited by the addition of 10 μM phenylephrine. After washing and stabilizing, the test compound was added cumulatively to a final concentration of −12 to −5 log M to measure a contractile response. By taking the contractile response by 10 μM phenylephrine as 100%, the ratio of the contractile response in the concentration of the test compound at 1 μM was calculated.
as §7

For the next series, the system named is urethral pressure. The series is described as follows: Effect of test compound on urethral pressure in anesthetized rats. As to conditions: 0.1 mg/kg intravenously, urethane-anesthetized SD female rats. Type of series: in vivo, rat. An excerpt:
Test Example 3 Test to Evaluate Effect of Test Compound on Urethral Pressure
It has been reported that an increase in the urethra pressure is useful for the treatment of urinary incontinence, particularly stress urinary incontinence (for example, Drugs, 64, 14, 1503-1516 (2004)). In order to confirm whether the compound of the present invention increases the urethra pressure and thus is useful for the treatment of urinary incontinence, particularly stress urinary incontinence, the following tests were carried out.
SD female rats were anesthetized with urethane and subjected to laparotomy. Then, the bladder apex was incised and a catheter was inserted from the bladder apex. Further, the catheter tip was ligated and fixed to be located in the proximal urethra portion. The catheter was connected to a pressure transducer and an infusion pump. Further, a catheter for administrating the compound was fitted into the femoral vein. Physiological saline was continuously infused into the urethra and the perfusion pressure in the urethra was measured. After the urethral pressure was stabilized, the test compound that had been dissolved in physiological saline, or physiological saline including 5% dimethylacetamide and 0.5% Cremophor was administered intravenously at 0.1 mg/kg, and a change in urethral pressures was measured.
Further, the results of administering an active metabolite of midodrine (ST-1059: purchased from CHEMIZON) (J. Urology, 118, 980-982 (1977)) which is an α1 adrenoceptor agonist and has an effect on stress urinary incontinence in rat doses (0.01 mg/kg) presumed to correspond to the clinical doses are referenced and shown in the Tables below. The increment value in the urethra pressures of ramelteon and the Example compounds of the present invention at the time of administration are shown in Table 4. Ex represents Example No. of the test compound.

Series [1] is described as follows: CNS penetration: CSF to plasma unbound concentration ratio in rat. Type of series: in vivo. As to conditions: CSF and plasma (unbound), iv, 15 minutes after intravenous administration, CCSF/Cplasma,u, read-out: Kp,uu,CSF,iv15min. Here is the method:
Test Example 4 Test for Evaluating CNS Penetration
(1) Measurement of Unbound Fraction (fp) in Rat Plasma
A test compound (100 μg/mL, 50% acetonitrile solution) at 1% (v/v) with respect to the amount of the plasma was added to rat plasma, and dispensed to a sample for a supernatant and a sample for the plasma. The sample for a supernatant was ultracentrifuged at 436,000×g and 37° C. for 140 minutes, and the sample for the plasma was incubated at 37° C. for 140 minutes.
After 140 minutes, the sample for a supernatant after the ultracentrifugation and the sample for the plasma were taken, and mixed with the blank plasma or the blank supernatant, respectively. Acetonitrile including an internal standard material was added to each of the samples, and after the centrifugation at 2150×g and 4° C. for 10 minutes the supernatant was injected into LC-MS/MS.
The unbound fraction in the plasma was calculated by the following equation.
(wherein fp: an unbound fraction in the plasma and D: a dilution rate of the plasma. fu,app=peak area ratio of supernatant sample/peak area ratio of the plasma sample, and peak area ratio=peak area of test compound/peak area of internal standard material).
(2) The CSF to Plasma Unbound Concentration Ratio in Rat
A 50% acetonitrile solution and an acetonitrile including internal standard material was added to the collected plasma or CSF. After centrifugation at 4° C. and 2150×g for 10 minutes, the supernatant was injected into LC-MS/MS, and the total concentration of the test compound in the plasma (Cplasma,t) and the concentration of the test compound in CSF (CCSF) were obtained. The unbound concentration in the plasma (Cplasma,u) of the test compound and the CSF-to plasma unbound concentration ratio (Kp,uu,CSF) of the test compound was calculated by the following equation.
as §7

Another series deals with 3T3. The series is described as follows: In vitro 3T3 NRU phototoxicity test. Type of series: cell-based. Here is the method: Test Example 6 Drug Pharmacokinetic Test, Safety Pharmacology Test, and Toxicity Test
Using some Example compounds of the present invention, a drug Pharmacokinetic test, a safety pharmacology test, and a toxicity test were carried out.
(iii) For the toxicity test, for example, an in vitro phototoxicity test was carried out. The evaluation of the in vitro phototoxicity test was carried out in accordance with Guidance for industry photosafety testing, Center for Drug Evaluation and Research Food and Drug Administration, 2003, which is a guideline of FDA (U.S. Food and Drug Administration), and Note for guidance on photosafety testing (CPMP/SWP/398/01, 2002) which is a guideline of EMA (European Medicines Agency), and the method described in OECD guideline for testing of chemicals 432: In vitro 3T3 NRU phototoxicity test, 2004, which is a test method described in the report of OECD.

human MT1 receptor, sequence (P48039 whole entry): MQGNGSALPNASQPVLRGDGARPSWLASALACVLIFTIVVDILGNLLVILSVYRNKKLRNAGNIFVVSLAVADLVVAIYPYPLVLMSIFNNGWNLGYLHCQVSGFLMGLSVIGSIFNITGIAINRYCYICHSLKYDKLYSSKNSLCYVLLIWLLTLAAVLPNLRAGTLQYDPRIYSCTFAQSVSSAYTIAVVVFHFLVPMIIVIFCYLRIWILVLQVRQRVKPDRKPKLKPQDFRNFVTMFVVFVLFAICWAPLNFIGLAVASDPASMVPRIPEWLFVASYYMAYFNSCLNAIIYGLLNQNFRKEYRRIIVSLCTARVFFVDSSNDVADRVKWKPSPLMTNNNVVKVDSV

For the compound `CNC(=O)c1[nH]c2cc(F)c(OC)cc2c1CCNC(=O)C(F)F` [Ex 15], on human MT1 receptor, the Emax worked out at 104% and the EC50 was 5.4 nM. On human MT2 receptor, this compound came in with an Emax of 103% and an EC50 of 17 nM. In addition, the activation at 1 µM with isolated urethra worked out at 261%. Besides, in the series on urethral pressure, the “Increment value in the urethra pressures (mmHg)” value (“Increment value” for short) was determined as 8.6 ± 0.9 mmHg. In addition, in series [1], the Kp uu at 0.25 h stood at 0.07. Also, the phototoxicity action entry with 3T3 is given as “no phototoxicity action”.

`CNC(=O)c1[nH]c2cc(F)c(OC)cc2c1CCNC(C)=O` [Ex 56, 3-(2-acetamidoethyl)-6-fluoro-5-methoxy-N-methyl-1H-indole-2-carboxamide] yielded a melting point of 209 to 212 °C.

The compound `CNC(=O)c1[nH]c2cc(F)c(OC)cc2c1CCNC(=O)C(F)F` [Ex 57, 3-{2-[(difluoroacetyl)amino]ethyl}-6-fluoro-5-methoxy-N-methyl-1H-indole-2-carboxamide] yielded a melting point of 196 to 200 °C.

With `CNC(=O)c1[nH]c2ccc(OC)cc2c1CCNC(C)=O` [Ex 1, 3-(2-acetamidoethyl)-5-methoxy-N-methyl-1H-indole-2-carboxamide], at human MT1 receptor, the Emax was 104% and the EC50 is 12 nM. On human MT2 receptor, the Emax worked out at 108% and the EC50 came out at 26 nM. Besides, the activation at 1 µM in the series with isolated urethra worked out at 128%. Moreover, the “Increment value” value with urethral pressure was found to be 5.1 ± 0.6 mmHg. Also, the Kp uu at 0.25 h in series [1] is 0.18. In addition, the phototoxicity action result with 3T3 is on record as “no phototoxicity action”.

Take `CNC(=O)NCCc1c(C(=O)NC)[nH]c2ccc(OC)cc12` [Ex 8, 5-methoxy-N-methyl-3-{2-[(methylcarbamoyl)amino]ethyl}-1H-indole-2-carboxamide]: at human MT1 receptor, the Emax was 124% and the half-maximal effective concentration (EC50) is 12 nM. For the same compound, at human MT2 receptor, the Emax worked out at 119% and the EC50 amounted to 19 nM. In the series on urethral pressure, the “Increment value” value was 6.0 ± 0.4 mmHg. Also, in series [1], the Kp uu at 0.25 h turned out to be 0.03. Besides, the phototoxicity action result with 3T3 is “no phototoxicity action”.
